Key:
Type in all cases: cell-based
[1] = system: human lung adenocarcinoma cell line (A549); experiment: MTT assay, in vitro anticancer activity, A549; details: A549 cells, 24 hours incubation, read-out: inhibition concentrations IC50
Protocol: (§1) The in vitro anticancer activity of the prepared complexes listed as the examples below was determined by the MTT assay. The method is based on the ability of metabolic-active cells to reduce (by mitochondrial dehydrogenases) the yellow tetrazolium dye (3-(4,5-dimethylthiazol-2-yl)-2,5-diphenyltetrazolium bromide (MTT)) to the blue formazane end-product. Because the reduction proceeds only in the living cells, the cytotoxicity of various compounds can be determined using this process. The water-insoluble formazane is quantified after dissolving in dimethyl sulfoxide (DMSO) with the solution of ammonia on a spectrophotometer (ELISA reader). The in vitro anticancer activity testing was performed on the following human cancer cell lines: lung adenocarcinoma (A549), cervix epitheloid carcinoma (HeLa), malignant melanoma (G361), ovarian carcinoma (A2780), cisplatin-resistant ovarian carcinoma (A2780R) and prostate carcinoma (LNCaP). The cell lines were maintained in plastic vessels in the DMEM medium (5 g/l glucose, 2 mM glutamine, 100 U/mL penicillin, 100 µg/mL streptomycin, 10% foetal calf serum and sodium bicarbonate) for cell cultures. The 80 µL of cell suspensions (ca. 1.25 × 10^5 cells per mL) were pipetted onto 96-well plastic microtitration plates. These were further pre-incubated at 37 °C in the CO2 atmosphere for 24 hours. The tested copper complexes and cisplatin, used as positive and therapeutic standard, were dissolved in N,N'-dimetylformamide in the concentrations up to 50 mM which served as stock solutions. For the experiment, the stock solutions were diluted 1000 x in the incubation medium (maximum concentration of 50.0 µM). After removal of the cultivation media, the mixtures of appropriate concentration were added to the cancer cells for the incubation period of 24 hours. The MTT analysis was performed spectrophotometrically (TECAN, Schoeller Instruments LLC) at 540 nm.
(§2) The concentrations of the tested complexes (µM) toxic for 50% of cancer cells (inhibition concentration IC50) were calculated from the dose-response curves.
The determination of in vitro anticancer activity of the studied compounds 1-6 and cisplatin against human lung adenocarcinoma cell line (A549) was performed by the MTT assay.

[2] = system: human malignant melanoma cancer cell line (G361); experiment: MTT assay, in vitro anticancer activity, G361; details: G361 cells, 24 hours incubation, read-out: inhibition concentrations IC50
Protocol: as §1, with “The 80 µL of cell suspensions (ca. 1.25 × 10^5 cells per mL) were pipetted onto 96-well plastic microtitration plates.” left out

[3] = system: human cervix epitheloid carcinoma cell line (HeLa); experiment: MTT assay, in vitro anticancer activity, HeLa; details: HeLa cells, 24 hours incubation, read-out: inhibition concentrations IC50
Protocol: as §1, §2
The determination of in vitro anticancer activity of the studied compounds 1-6 and cisplatin against human cervix epitheloid carcinoma cell line (HeLa) was performed by the MTT assay.

[4] = system: human ovarian carcinoma cell line (A2780); experiment: MTT assay, in vitro anticancer activity, A2780; details: A2780 cells, 24 hours incubation, read-out: inhibition concentrations IC50
Protocol: as §1, §2
The determination of in vitro anticancer activity of the studied compounds 1-6 and cisplatin against human ovarian carcinoma cell line (A2780) was performed by the MTT assay.

[5] = system: human cisplatin-resistant ovarian carcinoma cell line (A2780R); experiment: MTT assay, in vitro anticancer activity, A2780R; details: A2780R cells, 24 hours incubation, read-out: inhibition concentrations IC50
Protocol: as §1, §2
The determination of in vitro anticancer activity of the studied compounds 1-6 and cisplatin against human cisplatin-resistant ovarian carcinoma cell line (A2780R) was performed by the MTT assay.

[6] = system: human prostate carcinoma cell line (LNCaP); experiment: MTT assay, in vitro anticancer activity, LNCaP; details: LNCaP cells, 24 hours incubation, read-out: inhibition concentrations IC50
Protocol: as §1, §2
The determination of in vitro anticancer activity of the studied compounds 1-6 and cisplatin against human prostate carcinoma cell line (LNCaP) was performed by the MTT assay.

For `N.N.[Cl][Pt][Cl]` [cisplatin, cis-diammine-dichlorido platinum(II) complex, reference compound], the IC50 [1] was 25800 ± 7100 nM, the IC50 [2] was 3400 ± 100 nM and the IC50 [3] was 10000 ± 2600 nM. The IC50 [4] was 12000 ± 800 nM, the IC50 [5] was 27000 ± 4600 nM and the IC50 [6] was 3800 ± 1500 nM.

With `F[B-](F)(F)F.O=c1c([O-])c(-c2ccccc2)[nH]c2ccccc12.[Cu+2].c1cnc2c(c1)ccc1cccnc12` [complex 4, (2-phenyl-4-oxo-1,4-dihydroquinolin-3-olato-κ^2O^3:O^4) (1,10-phenanthroline-κ^2N^1:N^10)copper(II) tetrafluoroborate] the IC50 [1] was 3900 ± 1200 nM, the IC50 [2] was 640 ± 200 nM and the IC50 [3] was 2700 ± 600 nM. For the same molecule, the IC50 [4] was 520 ± 100 nM, the IC50 [5] was 1700 ± 600 nM and the IC50 [6] was 1900 ± 600 nM.

`O=[N+]([O-])[O-].O=c1c([O-])c(-c2ccccc2)[nH]c2ccccc12.[Cu+2].c1cnc2c(c1)ccc1cccnc12` [complex 1, (2-phenyl-4-oxo-1,4-dihydroquinolin-3-olato-κ^2O^3:O^4)(1,10-phenanthroline-κ^2N^1:N^10)copper(II) nitrate monohydrate] gave an IC50 [1] of 2500 ± 400 nM, an IC50 [2] of 820 ± 150 nM and an IC50 [3] of 2900 ± 300 nM. It also gave an IC50 [4] of 650 ± 280 nM, an IC50 [5] of 830 ± 300 nM and an IC50 [6] of 2400 ± 600 nM.

With `Cc1cc2cccnc2c2ncccc12.O=[N+]([O-])[O-].O=c1c([O-])c(-c2ccccc2)[nH]c2ccccc12.[Cu+2]` [complex 2, (2-phenyl-4-oxo-1,4-dihydroquinolin-3-olato-κ^2O^3:O^4)(5-methyl-1,10-phenanthroline-κ^2N^1:N^10)copper(II) nitrate monohydrate] the IC50 [1] was 2500 ± 600 nM, the IC50 [2] was 530 ± 220 nM and the IC50 [3] was 2600 ± 400 nM. It also gave an IC50 [4] of 380 ± 30 nM, an IC50 [5] of 780 ± 70 nM and an IC50 [6] of 2100 ± 600 nM.

`F[B-](F)(F)F.O=c1c([O-])c(-c2ccccc2)[nH]c2ccccc12.[Cu+2].c1ccc(-c2ccnc3c2ccc2c(-c4ccccc4)ccnc23)cc1` [complex 6, (2-phenyl-4-oxo-1,4-dihydroquinolin-3-olato-κ^2O^3:O^4) (4,7-diphenyl-1,10-phenanthroline-κ^2N^1:N^10) copper(II) tetrafluoroborate] gave an IC50 [1] of 1300 ± 400 nM, an IC50 [2] of 720 ± 60 nM and an IC50 [3] of 1300 ± 400 nM. It also gave an IC50 [4] of 570 ± 110 nM, an IC50 [5] of 700 ± 200 nM and an IC50 [6] of 620 ± 80 nM.

In the case of `Cc1cc2cccnc2c2ncccc12.F[B-](F)(F)F.O=c1c([O-])c(-c2ccccc2)[nH]c2ccccc12.[Cu+2]` [complex 5, (2-phenyl-4-oxo-1,4-dihydroquinolin-3-olato-K^2O^3:O^4)(5-methyl-1,10-phenanthroline-κ^2N^1:N^10)copper(II) tetrafluoroborate monohydrate], the IC50 [1] is reported as 2500 ± 600 nM, the IC50 [2] is reported as 530 ± 90 nM and the IC50 [3] is reported as 2400 ± 1000 nM. For the same molecule, the IC50 [4] was 360 ± 50 nM, the IC50 [5] was 560 ± 150 nM and the IC50 [6] was 1500 ± 600 nM.

`O=[N+]([O-])[O-].O=c1c([O-])c(-c2ccccc2)[nH]c2ccccc12.[Cu+2].c1ccc(-c2ccnc3c2ccc2c(-c4ccccc4)ccnc23)cc1` [complex 3, (2-phenyl-4-oxo-1,4-dihydroquinolin-3-olato-κ^2O^3:O^4)(4,7-diphenyl-1,10-phenanthroline-κ^2N^1:N^10)copper(II) nitrate monohydrate] showed an IC50 [1] of 1700 ± 300 nM, an IC50 [2] of 960 ± 30 nM and an IC50 [3] of 1000 ± 200 nM. For the same molecule, the IC50 [4] was 660 ± 70 nM, the IC50 [5] was 730 ± 90 nM and the IC50 [6] was 740 ± 210 nM.

— patent publication EP2650000A1, “Utilization of copper complexes involving 2-phenyl-3-hydroxy-4(1H)-quinolinone and 1,10-phenanthroline derivatives for the preparation of drugs for the treatment of tumour diseases” (Univerzita Palackeho, priority 2012, dated 2013)
